Data taken from PubChem BioAssay AID1549 (Sanford-Burnham Center for Chemical Genomics, 2009).
Calls of active or inactive are those of the source. The rule behind the calls is not given here.

Molecular target: Influenza A virus M2 proton channel (A/TW/4845/1999 H1N1)
Assay: M2 proton channel binding, NMR based, influenza A virus H1N1 strain (AID 1549)
Conditions: NMR binding screen, M2 protein

`O=C(NC(O)C(=O)c1ccccc1)c1ccco1` (configuration not stated) was tested, and the Kd was > 4 mM (inactive).

In the case of `COC(=O)C[C@H]1C(C)(C)C(=O)[C@@H]2CC3=C(CC[C@]4(C)C3=CC(=O)O[C@H]4c3ccoc3)C1(C)C2=O`, the Kd is reported as > 4 mM (inactive).

For `CC(=O)NN1C(=O)c2cccc3cccc(c23)C1=O`, the Kd was > 4 mM (inactive).

In the case of `O=C(O)c1ccccc1N1CCOCC1`, the Kd is reported as > 4 mM (inactive).

`CC1(C)CC(NC(=O)/C=C/C(=O)O)CC(C)(C)N1` was tested, and the Kd was > 4 mM (inactive).

`NCC1COc2ccccc2O1` (configuration not stated) was tested, and the Kd was > 4 mM (inactive).

`OCC1COc2ccccc2O1` (configuration not stated) was tested, and the Kd was > 4 mM (inactive).

For `CC(C)=CCC[C@](C)(O)C1CC=C(C)CC1` (some centres not stated), the Kd was > 4 mM (inactive).

With `O=C(Nc1nnc(-c2ccco2)o1)C1=COCCO1` the Kd was > 4 mM (inactive).

With `O=C1NCC(=O)N2CCc3ccccc3C12` (configuration not stated) the Kd was > 4 mM (inactive).

For `OCc1ccc2occc2c1`, the Kd was > 4 mM (inactive).

`O=c1[nH]c2c(c(=O)n1C1CCCCC1)CCC2` was tested, and the Kd was > 4 mM (inactive).

`CC(=O)c1cnc(Nc2nc(C)c3ccccc3n2)nc1C` was tested, and the Kd was > 4 mM (inactive).

In the case of `O=C(Nc1cnccn1)c1cccs1`, the Kd is reported as > 4 mM (inactive).

With `O=c1[nH]c(=O)n(-c2ccc(F)cc2)c(O)c1/C=C1/C=CC=N1` the Kd was > 4 mM (inactive).

`O=C(CSc1ccnc(=O)[nH]1)NCc1ccccc1` was tested, and the Kd was > 4 mM (inactive).

With `Cc1cc(C)n2nc(N)nc2n1` the Kd was > 4 mM (inactive).

`O=C1NC(=O)/C(=C\c2ccncc2)S1` was tested, and the Kd was > 4 mM (inactive).

In the case of `NC(=O)CSc1nnc2ccc(-c3ccco3)nn12`, the Kd is reported as > 4 mM (inactive).

`OC12CC3CC(CC(C3)C1)C2` was tested, and the Kd was > 4 mM (inactive).

`Cn1nnc2cc(C(=O)O)ccc21` was tested, and the Kd was > 4 mM (inactive).

With `CC(=O)Oc1ccc2c(c1C(C)C)CCC1C(C)(C)CCC[C@]21C` (some centres not stated) the Kd was > 4 mM (inactive).

For `Cc1cc(=O)n2ccc(CN3CCOCC3)c(O)c2n1`, the Kd was > 4 mM (inactive).

In the case of `Cc1nc(NC(=O)c2cccnc2)ccc1Br`, the Kd is reported as > 4 mM (inactive).

For `Cc1cn2c(-c3cccnc3)nnc2s1`, the Kd was > 4 mM (inactive).

With `CCOc1nc(C)ccc1-c1noc(-c2ccco2)n1` the Kd was > 4 mM (inactive).

With `Cn1c(=O)c2[nH]c(Nc3ccccc3)nc2n(C)c1=O` the Kd was > 4 mM (inactive).

With `COc1ccc2c(c1)OC[C@@H](Cc1ccc(OC)c(OC)c1)[C@H]2O` the Kd was > 4 mM (inactive).

`CN1CCC[C@H]1c1cccnc1` was tested, and the Kd was > 4 mM (inactive).

In the case of `CN(C)c1nc(N)nc(-c2nc3ccccc3s2)n1`, the Kd is reported as > 4 mM (inactive).

For `Cc1ccc(NC(=O)N2CCC(C(N)=O)CC2)cc1`, the Kd was > 4 mM (inactive).

In the case of `COc1cc(C(C)=O)cc(OC)c1O`, the Kd is reported as > 4 mM (inactive).

`CNS(=O)(=O)c1cc(OC)ccc1OC` was tested, and the Kd was > 4 mM (inactive).

`CC(=O)O[C@@H]1CC2C(C)(C)[C@H](O)C=C[C@]2(C)C2CC[C@]3(C)C(=CC(=O)O[C@H]3c3ccoc3)[C@@]21C` (some centres not stated) was tested, and the Kd was > 4 mM (inactive).

`Cc1c(O)c(O)cc2c1CC=C1[C@@]2(C)CC[C@@]2(C)C3C[C@](C)(C(=O)O)CC[C@]3(C)CC[C@]12C` (some centres not stated) was tested, and the Kd was > 4 mM (inactive).

In the case of `S=c1[nH]cnc2sccc12`, the Kd is reported as > 4 mM (inactive).

In the case of `COc1cccc(-c2csc(NC(C)=O)n2)c1`, the Kd is reported as > 4 mM (inactive).

With `CC(C)(O)[C@@H]1[C@H]2OC(=O)[C@@H]1[C@]1(O)C[C@H]3O[C@]34C(=O)O[C@H]2[C@]14C` the Kd was > 4 mM (inactive).

For `O=c1nc(NCc2ccco2)sc2ncccc12`, the Kd was > 4 mM (inactive).

`NC(=O)c1sc2ccccc2c1Cl` was tested, and the Kd was > 4 mM (inactive).

`O=C(O)CNCC(O)Cn1c2ccccc2c2ccccc21` (configuration not stated) was tested, and the Kd was > 4 mM (inactive).

`C[C@H]1[C@H](C)CC[C@]2(CO)CC[C@]3(C)C(=CCC4[C@@]5(C)CC[C@H](O)C(C)(C)C5CC[C@]43C)[C@H]12` (some centres not stated) was tested, and the Kd was > 4 mM (inactive).

`Nc1cc(-c2ccco2)[nH]n1` was tested, and the Kd was > 4 mM (inactive).

For `CC1O[C@@H](Oc2c(-c3ccc(O)c(O)c3)oc3cc(O)cc(O)c3c2=O)[C@H](O)[C@H](O)[C@H]1O` (some centres not stated), the Kd was > 4 mM (inactive).

In the case of `Cc1oc(-c2ccccc2)cc1C(=O)O`, the Kd is reported as > 4 mM (inactive).

With `O=C(Nc1ccccc1F)c1ccncc1` the Kd was > 4 mM (inactive).

In the case of `O=C(O)CCN1CCOCC1`, the Kd is reported as > 4 mM (inactive).

For `O=c1cc(CO)oc(CN2CCCCC2)c1O`, the Kd was > 4 mM (inactive).

For `O=C(Nn1cnnc1)c1cc2c(s1)CCCCC2`, the Kd was > 4 mM (inactive).

For `Cn1cc(Cl)c(C(=O)Nc2ccncc2)n1`, the Kd was > 4 mM (inactive).

For `O=C(O)CCC1NCC2CC1CN1CCCCC21` (configuration not stated), the Kd was > 4 mM (inactive).

For `O=C(O)Cn1cnc2ccccc2c1=O`, the Kd was > 4 mM (inactive).

For `O=CN1CCN(C(=O)c2ccccc2F)CC1`, the Kd was > 4 mM (inactive).

`Cc1nnc(Nc2ccc(S(N)(=O)=O)cc2)[nH]c1=O` was tested, and the Kd was > 4 mM (inactive).

`C=C1CCC(=O)C(C)CCC2C1CC2(C)C` (configuration not stated) was tested, and the Kd was > 4 mM (inactive).

For `CC(=O)O[C@@H]1c2c(ccc3ccc(=O)oc23)OC(C)(C)[C@@H]1OC(=O)CC(C)C`, the Kd was > 4 mM (inactive).

With `O=C(c1ccc(F)cc1)C1CCNCC1` the Kd was > 4 mM (inactive).

With `O=C(Nc1ccc2c(c1)OCO2)c1ccc(=O)[nH]n1` the Kd was > 4 mM (inactive).

`OC1CNCc2cc3c(cc21)OCCO3` (configuration not stated) was tested, and the Kd was > 4 mM (inactive).

With `O=c1n(-c2cccc(Cl)c2)c(=O)n2n1CCC2` the Kd was > 4 mM (inactive).

With `O=C1CSC(=O)N1CN1CCOCC1` the Kd was > 4 mM (inactive).

In the case of `COc1cc(C(=O)NCC2CCCO2)cc(OC)c1OC` (configuration not stated), the Kd is reported as > 4 mM (inactive).

In the case of `CC1CC[C@@]2(OC1)O[C@H]1CC3C4CC[C@@H]5C[C@@H](O)CC[C@]5(C)C4CC[C@]3(C)[C@H]1[C@@H]2C` (some centres not stated), the Kd is reported as > 4 mM (inactive).

`CCCc1cc2c(c(NC(C)=O)n1)c(=O)oc1ccccc12` was tested, and the Kd was > 4 mM (inactive).

For `O=C1CCC(C(=O)NCc2ccc(Cl)cc2)N1` (configuration not stated), the Kd was > 4 mM (inactive).

In the case of `C=C[C@@]1(C)CC(=O)[C@@]2(O)[C@](C)(O1)[C@@H](OC(C)=O)[C@@H](O)C1C(C)(C)CC[C@H](O)[C@@]12C` (some centres not stated), the Kd is reported as > 4 mM (inactive).

For `c1ccc(CCN2CCN(CCc3ccccn3)CC2)nc1`, the Kd was > 4 mM (inactive).

`CC1(C)C2CC(=O)[C@]3(C)C(CC[C@@]4(C)[C@H](c5ccoc5)OC(=O)[C@H]5O[C@]543)[C@@]2(C)C=C[C@@H]1O` (some centres not stated) was tested, and the Kd was > 4 mM (inactive).

For `OCc1ccc(OC(F)(F)F)cc1`, the Kd was > 4 mM (inactive).

With `COc1cc(/C=C2/NC(=S)NC2=O)cc(Cl)c1O` the Kd was > 4 mM (inactive).

For `Nc1nc(SCc2ccc3c(c2)OCCO3)n[nH]1`, the Kd was > 4 mM (inactive).

With `Nc1nc(-c2ccc(Cl)cc2)nn1C(=O)c1cccnc1` the Kd was > 4 mM (inactive).

In the case of `CC(C)=CC(=O)Nc1ccc2c(c1)OCO2`, the Kd is reported as > 4 mM (inactive).

For `NC(=O)Cn1nc2c3c(cccc3c1=O)-c1ccccc1-2`, the Kd was > 4 mM (inactive).

With `O=NN1C(=O)c2ccccc2C1=O` the Kd was > 4 mM (inactive).

`Cc1nccn1CCC(=O)O` was tested, and the Kd was > 4 mM (inactive).

In the case of `c1cncc(Nc2nc(-c3cccnc3)cs2)c1`, the Kd is reported as > 4 mM (inactive).

For `COC(=O)c1ccc2nsnc2c1`, the Kd was > 4 mM (inactive).

In the case of `Cc1cc(NC(=O)Cc2c(F)cccc2Cl)no1`, the Kd is reported as > 4 mM (inactive).

For `Cc1ccc(-c2nnc3sc(-c4ccncc4)nn23)cc1`, the Kd was > 4 mM (inactive).

In the case of `CCn1cnc2scc(-c3ccccc3)c2c1=O`, the Kd is reported as > 4 mM (inactive).

With `Fc1cccc(Cl)c1CN1CCNCC1` the Kd was > 4 mM (inactive).
